Results published in patent publication US11578069B2, “Compounds for inhibition of α4 β7 integrin” (Gilead Sciences, Inc., priority 2019, dated 2023).

Tests used:
α4β7 integrin = target: T1, α4β7 integrin (Homo sapiens, UniProt P13612+P26010); test: α4β7 Integrin Cell Capture Assay; type: cell-based; settings: capture of α4β7 integrin expressing RPM18866 cells on MadCAM-1 extracellular domain-coated plate
T1 construct: monitoring the capture of α4β7 integrin expressing cells; endogenous in cells; host or cells: RPMI8866
T1 sequence (P13612 34-1032): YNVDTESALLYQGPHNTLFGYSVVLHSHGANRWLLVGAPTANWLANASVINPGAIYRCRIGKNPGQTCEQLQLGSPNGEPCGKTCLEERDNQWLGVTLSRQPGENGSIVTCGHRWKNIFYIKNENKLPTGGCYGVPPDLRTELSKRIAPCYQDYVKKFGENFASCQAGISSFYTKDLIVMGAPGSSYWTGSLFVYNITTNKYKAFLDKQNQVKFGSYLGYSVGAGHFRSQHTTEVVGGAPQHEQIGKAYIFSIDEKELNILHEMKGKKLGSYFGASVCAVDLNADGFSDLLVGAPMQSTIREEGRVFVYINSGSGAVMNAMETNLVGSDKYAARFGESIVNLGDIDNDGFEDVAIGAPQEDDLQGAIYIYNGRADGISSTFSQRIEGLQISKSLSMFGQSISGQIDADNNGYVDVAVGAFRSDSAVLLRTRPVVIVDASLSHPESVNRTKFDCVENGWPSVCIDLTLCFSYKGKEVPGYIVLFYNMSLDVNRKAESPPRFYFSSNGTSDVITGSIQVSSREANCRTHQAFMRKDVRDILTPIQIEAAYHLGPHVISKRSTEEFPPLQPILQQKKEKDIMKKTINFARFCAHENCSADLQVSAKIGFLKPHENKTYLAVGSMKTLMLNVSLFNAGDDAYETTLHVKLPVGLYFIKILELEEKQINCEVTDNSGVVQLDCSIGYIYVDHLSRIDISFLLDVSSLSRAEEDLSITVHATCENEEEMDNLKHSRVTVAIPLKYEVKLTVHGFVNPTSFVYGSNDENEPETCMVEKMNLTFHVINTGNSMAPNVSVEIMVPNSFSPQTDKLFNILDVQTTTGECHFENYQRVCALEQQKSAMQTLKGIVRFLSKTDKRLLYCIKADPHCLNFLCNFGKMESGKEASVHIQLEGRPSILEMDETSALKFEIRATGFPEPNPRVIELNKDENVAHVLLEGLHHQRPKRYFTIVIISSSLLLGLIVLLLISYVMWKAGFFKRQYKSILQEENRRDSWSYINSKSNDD
T1 sequence (P26010 20-798): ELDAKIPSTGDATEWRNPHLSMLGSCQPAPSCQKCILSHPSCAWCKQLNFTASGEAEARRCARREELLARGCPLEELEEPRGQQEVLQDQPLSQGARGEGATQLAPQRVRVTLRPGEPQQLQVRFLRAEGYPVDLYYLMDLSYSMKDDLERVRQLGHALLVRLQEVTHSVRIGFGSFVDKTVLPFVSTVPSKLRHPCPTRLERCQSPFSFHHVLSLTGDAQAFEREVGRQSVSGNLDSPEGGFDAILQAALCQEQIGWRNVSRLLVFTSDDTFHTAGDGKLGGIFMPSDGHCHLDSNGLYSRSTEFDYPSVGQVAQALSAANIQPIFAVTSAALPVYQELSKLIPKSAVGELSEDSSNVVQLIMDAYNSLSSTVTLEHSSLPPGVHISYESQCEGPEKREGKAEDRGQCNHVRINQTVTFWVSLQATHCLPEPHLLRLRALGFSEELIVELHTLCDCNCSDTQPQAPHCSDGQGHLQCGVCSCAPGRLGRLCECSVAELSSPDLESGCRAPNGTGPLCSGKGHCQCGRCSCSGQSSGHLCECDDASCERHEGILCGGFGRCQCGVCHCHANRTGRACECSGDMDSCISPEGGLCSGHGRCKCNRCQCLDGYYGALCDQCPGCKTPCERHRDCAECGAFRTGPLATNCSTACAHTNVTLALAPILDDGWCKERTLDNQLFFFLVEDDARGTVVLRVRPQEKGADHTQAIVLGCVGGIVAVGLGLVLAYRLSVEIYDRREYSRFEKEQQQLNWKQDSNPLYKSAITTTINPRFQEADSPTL
Procedure: The potency of inhibitors in preventing α4β7 integrin interaction with MadCAM-1 was measured by monitoring the capture of α4β7 integrin expressing cells on a recombinant MadCAM-1 extracellular domain-coated plate.
384-well plates (Corning 3702) were coated with MadCAM-1 extracellular domain by dispensing 20 μL of MAdCAM-1 at 1.0 μg/mL per well and incubating overnight at 4° C. The plates were then washed with PBS and blocked with 3% BSA for 2 hours before being washed again.
(§1) RPM18866 cells were spun down and re-suspended in assay medium (DMEM+0.5% FBS+0.5 mM MnCl2) at a density of 0.5×10^6 cells/mL. The cells were then dispensed (60 μL/well) to a 384-well plate (Greiner 781280) that was previously spotted with 60 nL of test compound per well. The plates were incubated at 37° C. for 1 hour. 50 μL of cells were transferred to the blocked, MadCAM-1-coated plates and incubated for 30 minutes at 37° C. 10 μL of 12% glutaraldehyde containing Hoechst 33342 (0.06 mg/mL) was added to the cells (2% glutaraldehyde and 0.01 mg/mL final concentrations). The plates were incubated for 90 minutes at room temperature. The plates were then washed 3 times with 70 μL of PBS per well and imaged on a Cellomics ArrayScan instrument. The cells that were bound to the plate were counted and plotted against the compound concentration to determine the EC50 of the test compounds.

α4β1 integrin = target: T2, α4β1 integrin (Homo sapiens, UniProt P05556+P13612); test: α4β1 Cell Capture Assay; type: cell-based; settings: capture of α4β1 expressing Jurkat cells on VCAM-1 extracellular domain-coated plate
T2 construct: monitoring the capture of α4β1 expressing cells; endogenous in cells; host or cells: Jurkat
T2 sequence (P05556 21-798, one chain of several): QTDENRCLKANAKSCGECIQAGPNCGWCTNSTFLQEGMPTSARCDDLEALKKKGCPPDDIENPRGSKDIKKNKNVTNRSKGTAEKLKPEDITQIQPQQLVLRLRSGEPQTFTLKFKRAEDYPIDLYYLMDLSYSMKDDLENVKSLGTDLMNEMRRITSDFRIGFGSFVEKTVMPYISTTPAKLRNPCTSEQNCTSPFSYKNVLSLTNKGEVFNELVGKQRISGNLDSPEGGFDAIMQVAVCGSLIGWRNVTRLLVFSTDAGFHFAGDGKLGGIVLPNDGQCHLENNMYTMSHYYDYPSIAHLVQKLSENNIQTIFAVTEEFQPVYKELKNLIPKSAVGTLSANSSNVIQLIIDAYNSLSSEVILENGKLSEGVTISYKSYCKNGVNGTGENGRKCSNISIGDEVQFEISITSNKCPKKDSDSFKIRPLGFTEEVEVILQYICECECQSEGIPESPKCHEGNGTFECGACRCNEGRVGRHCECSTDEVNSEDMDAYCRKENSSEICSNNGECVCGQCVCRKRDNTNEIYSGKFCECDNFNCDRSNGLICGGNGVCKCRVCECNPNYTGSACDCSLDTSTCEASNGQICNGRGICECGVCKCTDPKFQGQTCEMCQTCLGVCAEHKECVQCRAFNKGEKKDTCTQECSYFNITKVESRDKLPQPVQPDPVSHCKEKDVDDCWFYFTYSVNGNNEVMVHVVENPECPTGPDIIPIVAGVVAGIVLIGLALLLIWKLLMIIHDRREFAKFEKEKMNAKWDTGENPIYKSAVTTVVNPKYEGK
Procedure: The potency of inhibitors in preventing α4β1 integrin interaction with VCAM-1 was measured by monitoring the capture of α4β1 expressing cells to a recombinant VCAM-1 extracellular domain-coated plate.
384-well plates (Corning 3702) were coated with VCAM-1 extracellular domain by dispensing 20 μL of VCAM-1 at 0.5 μg/ml per well and incubating overnight at 4° C. The plates were then washed with PBS and blocked with 3% BSA for 2 hours before being washed again.
as §1, with “Jurkat cells” for “RPM18866 cells”, “0.5×10^6 cells/ml.” for “0.5×10^6 cells/mL.”, “blocked, VCAM-1-coated” for “blocked, MadCAM-1-coated”, “10 μl” for “10 μL”, “0.01 mg/ml Hoechst 33342” for “0.01 mg/mL”

SMILES	EC50 (α4β7 integrin; Table 2)	EC50 (α4β1 integrin; Table 2)	EC50 (α4β7 integrin; Table 1)	EC50 (α4β1 integrin; Table 1)
Cc1cc(N2CCOC[C@@H]2C(F)(F)F)cc(F)c1C(=O)N[C@@H](Cc1ccc(-n2c(=O)c3ccncc3n(C)c2=O)c(C(F)(F)F)c1)C(=O)O (atropisomer, axis not shown) [Example 89]	0.6 nM	2.3 nM		
Cc1cc(N2CCOC[C@@H]2C(F)(F)F)cc(F)c1C(=O)N[C@@H](Cc1ccc(-n2c(=O)c3ccncc3n(C)c2=O)c(C(F)(F)F)c1)C(=O)O (atropisomer, axis not shown) [Example 90]	0.7 nM	9.7 nM		
Cc1cc(N2CCOC[C@@H]2C(F)(F)F)cc(F)c1C(=O)N[C@@H](Cc1ccc(-n2c(=O)c3ccncc3n(C)c2=O)c(OC(F)(F)F)c1)C(=O)O (atropisomer, axis not shown) [Example 92]	0.2 nM	1.3 nM		
Cc1cc(N2CCOC[C@@H]2C(F)(F)F)cc(F)c1C(=O)N[C@@H](Cc1ccc(-n2c(=O)c3ccncc3n(C)c2=O)c(OC(F)(F)F)c1)C(=O)O (atropisomer, axis not shown) [Example 93]	0.4 nM	25.8 nM		
CC[C@@H](Nc1cc(F)c(C(=O)N[C@@H](Cc2ccc(-c3c(C(F)(F)F)cc(C)n(C)c3=O)cc2)C(=O)O)c(F)c1)C(F)(F)F [Example 1, (S)-2-(2,6-difluoro-4-(((R)-1,1,1-trifluorobutan-2-yl)amino)benzamido)-3-(4-(1,6-dimethyl-2-oxo-4-(trifluoromethyl)-1,2-dihydropyridin-3-yl)phenyl)propanoic acid]			1.4 nM	10.3 nM
CC[C@@H](Nc1cc(F)c(C(=O)N[C@@H](Cc2ccc(-c3c(C(F)(F)F)cc(=O)n(C)c3C)cc2)C(=O)O)c(F)c1)C(F)(F)F [Example 2, (S)-2-(2,6-difluoro-4-(((R)-1,1,1-trifluorobutan-2-yl)amino)benzamido)-3-(4-(1,2-dimethyl-6-oxo-4-(trifluoromethyl)-1,6-dihydropyridin-3-yl)phenyl)propanoic acid]			13.6 nM	905 nM
Cc1cc(C(F)(F)F)c(-c2ccc(C[C@H](NC(=O)c3c(F)cc(N4CCOC[C@@H]4C(F)(F)F)cc3F)C(=O)O)cc2)c(=O)n1C [Example 3, (S)-2-(2,6-difluoro-4-((R)-3-(trifluoromethyl)morpholino)benzamido)-3-(4-(1,6-dimethyl-2-oxo-4-(trifluoromethyl)-1,2-dihydropyridin-3-yl)phenyl)propanoic acid]			0.5 nM	18.5 nM
Cc1c(C(F)(F)F)cn(C)c(=O)c1-c1ccc(C[C@H](NC(=O)c2c(F)cc(N3CCOC[C@@H]3C(F)(F)F)cc2F)C(=O)O)cc1 [Example 4, (S)-2-(2,6-difluoro-4-((R)-3-(trifluoromethyl)morpholino)benzamido)-3-(4-(1,4-dimethyl-2-oxo-5-(trifluoromethyl)-1,2-dihydropyridin-3-yl)phenyl)propanoic acid]			1.2 nM	63.7 nM
Cc1cc(C[C@H](NC(=O)c2c(C)cc(N3CCOC[C@@H]3C(F)(F)F)cc2F)C(=O)O)ccc1-c1c(C(F)(F)F)cc(C)n(C)c1=O [Example 5, (S)-3-(4-(1,6-dimethyl-2-oxo-4-(trifluoromethyl)-1,2-dihydropyridin-3-yl)-3-methylphenyl)-2-(2-fluoro-6-methyl-4-((R)-3-(trifluoromethyl)morpholino)benzamido)propanoic acid]			0.2 nM	16.6 nM
Cc1cc(C(F)(F)F)c(-c2ccc(C[C@H](NC(=O)c3c(F)cc(N4CCOC[C@@H]4C(F)(F)F)cc3F)C(=O)O)cc2F)c(=O)n1C [Example 6, (S)-2-(2,6-difluoro-4-((R)-3-(trifluoromethyl)morpholino)benzamido)-3-(4-(1,6-dimethyl-2-oxo-4-(trifluoromethyl)-1,2-dihydropyridin-3-yl)-3-fluorophenyl)propanoic acid]			0.3 nM	9.9 nM
Cc1cc(N2CCOC[C@@H]2C(F)(F)F)cc(F)c1C(=O)N[C@@H](Cc1ccc(-c2nc(C)c(C)n(C)c2=O)c(Cl)c1)C(=O)O [Example 7, (S)-3-(3-chloro-4-(4,5,6-trimethyl-3-oxo-3,4-dihydropyrazin-2-yl)phenyl)-2-(2-fluoro-6-methyl-4-((R)-3-(trifluoromethyl)morpholino)benzamido)propanoic acid]			0.5 nM	15.3 nM
CC[C@@H](Nc1cc(F)c(C(=O)N[C@@H](Cc2ccc(-n3c(=O)c4ccncc4n(C)c3=O)nc2)C(=O)O)c(F)c1)C(F)(F)F [Example 9, (S)-2-(2,6-difluoro-4-(((R)-1,1,1-trifluorobutan-2-yl)amino)benzamido)-3-(6-(1-methyl-2,4-dioxo-1,4-dihydropyrido[3,4-d]pyrimidin-3(2H)-yl)pyridin-3-yl)propanoic acid]			1.6 nM	117 nM
CC[C@@H](Nc1cc(C)c(C(=O)N[C@@H](Cc2ccc(-n3c(=O)c4ccncc4n(C)c3=O)nc2)C(=O)O)c(F)c1)C(F)(F)F [Example 11, (S)-2-(2-fluoro-6-methyl-4-(((R)-1,1,1-trifluorobutan-2-yl)amino)benzamido)-3-(6-(1-methyl-2,4-dioxo-1,4-dihydropyrido[3,4-d]pyrimidin-3(2H)-yl)pyridin-3-yl)propanoic acid]			0.5 nM	30.1 nM
